In patent publication US20210338548A1, “Mint Flavor Compositions” (The Procter & Gamble Company, priority 2020, published 2021):

Key:
[1] = Expert sensory testing of racemic menthol vs (−)-menthol in toothpaste (CREST Cavity) with standard spearmint flavor; format: in vivo
Procedure: In separate, unpublished internal experiments, perceptual experiences of racemic menthol are quantified via expert sensory testing. The use of a standard spearmint flavor (minimizing extra menthol contribution) compared racemic menthol to (−)-menthol in a toothpaste formulation (CREST Cavity). There are several sensory observations taken from these experiments. […] These aromatic notes appear during brushing and disappear after 5-10 minutes post expectoration and are more pronounced as concentrations increase.

[2] = Comparison of cooling attributes of (−)-menthol and racemic menthol in toothpaste (CREST Cavity formulation); format: in vivo
Description: The following data helps support the use of racemic menthol to reduce costs of mint flavor compositions herein described. From internal unpublished research, Table B compares replacing (−)-menthol with a racemic menthol in a 1:1 in a toothpaste formulation. Such a direct replacement is not preferred given the reduced cooling profile and olfactory differences; however, a portion of L-menthol is preferably replaced by racemic-menthol to gain cost efficiency while minimizing impact to the overall mint flavor profiles.
Table B is a comparison of attributes between (−)-menthol and racemic menthol in a toothpaste context (using CREST Cavity formulation).
This value represents the concentration of a coolant where 50% of its maximal cooling is observed.

CC1CCC(C(C)C)C(O)C1 (racemic) [Racemic Menthol]
less potent than (−)-menthol for cooling [1]: 25-30% | Maximum Longevity [2]: Up to 20 minutes | Potency compared to L-Menthol [2]: ~0.65-0.7x | Time Point at Maximum Cooling [2]: ~1 min | Maximum Cooling (0-60 scale) ([2]; 60 = greatest amount of cooling, 0 = least): 35 | EC 50 ([2]; concentration of coolant giving 50% of its maximal cooling): 1,250 to 1,500 parts per million
